# Legend:
# [1] = system: IFN-α induction in human whole blood; assay: Induction of Interferon-α using fresh human whole blood (WB); type: cell-based; conditions: three donors, overnight incubation, cytokine release as % of 2 μM resiquimod control, read-out: mean pEC50 for IFN-α (converted)
# Experimental: (§1) Assay for the Induction of Interferon-α and TNF-α Using Fresh Human Whole Blood (WB)
# (§2) Compounds were prepared at 100× required concentration in DMSO in flat-bottom microtitre plates at a volume of 1.5 μL. Columns 1-10 contained a 1 in 4 serial dilution of the test compound. Included on each plate was a serial dilution of the TLR7/8 agonist resiquimod as a standard and Column 11 contained 1.5 μl of 200 μM resiquimod (giving a 2 μM final concentration, used to define the approximate maximal response to resiquimod). Each compound was assayed in duplicate for each donor.
# (§3) Blood samples from three human donors were collected into sodium heparin (10 U/ml). 150 μl of whole Blood was dispensed into Col 1 to 11 of assay plates containing 1.5 μl of test compound or standard in DMSO. Plates were placed in an incubator overnight (37° C., 95% air, 5% CO2). Following the overnight incubation, plates were removed from the incubator & mixed on an orbital shaker for approximately 1 minute. 100 μl of 0.9% saline was added to each well and the plates mixed again on an orbital shaker. Plates were then centrifuged (2500 rpm, 10 mins), after which a sample of plasma was removed using a Biomek FX and assayed for both IFN-α and TNF-α using the MSD (Mesoscale Discovery) electrochemiluminescence assay platform. The IFN-α assay was carried out similarly to that described above. The TNF-α assay was carried out as per kit instructions (Cat No K111BHB).
# (§4) Cytokine released was expressed as a percentage of the 2 μM resiquimod control (column 11). This percentage was plotted against compound concentration and the pEC50 for the response determined by non-linear least squares curve fitting. For the IFN-α responses, generally a 4 parameter logistic model was selected. For the TNF-α responses where a clear maximum response was obtained (i.e. a well defined plateau in the response was observed) then a 4 parameter model was generally used. If the upper asymptote of the curve wasn't well defined then the curve fitting was generally constrained to a maximal response of 100% (i.e. to the response to 2 μM resiquimod) or to the response of the highest concentration tested if this was greater than the resiquimod response. Some curves were bell shaped for one or both cytokines and the cytokine data on the down slope of the bell shaped response (i.e. concentrations above those giving the maximal response) were generally excluded from the fit, usually with the exception of the concentration immediately above the peak response. Curve fitting thus concentrated on the up slope of the dose response curve.
# [2] = system: TNF-α induction in human whole blood; assay: Induction of TNF-α using fresh human whole blood (WB); type: cell-based; conditions: three donors, overnight incubation, cytokine release as % of 2 μM resiquimod control, read-out: mean pEC50 for TNF-α (converted)
# Experimental: as §1, §2, §3, §4
SMILES,EC50 [1],EC50 [2]
"CCCCc1nc(N)c2[nH]cc(CCCCCN3CCN(C(C)C)CC3)c2n1 [Example 2, 2-Butyl-7-(5-(4-isopropylpiperazin-1-yl)pentyl)-5H-pyrrolo[3,2-d]pyrimidin-4-amine]",≤ 1.58 µM,≥ 5.01 µM
"CCCCc1nc(N)c2[nH]c(C)c(CCCCCN3CCN(C(C)C)CC3)c2n1 [Example 3, 2-Butyl-7-(5-(4-isopropylpiperazin-1-yl)pentyl)-6-methyl-5H-pyrrolo[3,2-d]pyrimidin-4-amine]",≤ 1.58 µM,≥ 5.01 µM
"CCCCc1nc(N)c2[nH]cc(CCCCCN3CCNCC3)c2n1 [Example 1, 2-Butyl-7-(5-(piperazin-1-yl)pentyl)-5H-pyrrolo[3,2-d]pyrimidin-4-amine]",≤ 1.58 µM,≥ 5.01 µM
"CCCCc1nc(N)c2[nH]c(C)c(CCCCCN3CCN(CC)CC3)c2n1 [Example 4, 2-Butyl-7-(5-(4-ethylpiperazin-1-yl)pentyl)-6-methyl-5H-pyrrolo[3,2-d]pyrimidin-4-amine]",≤ 1.58 µM,≥ 5.01 µM

# Now from value to compound:
EC50 [1],EC50 [2],SMILES
≤ 1.58 µM,≥ 5.01 µM,"CCCCc1nc(N)c2[nH]cc(CCCN3CCN(CC)CC3)c2n1 [Example 6, 2-Butyl-7-(3-(4-ethylpiperazin-1-yl)propyl)-5H-pyrrolo[3,2-d]pyrimidin-4-amine]"
≤ 1.58 µM,≥ 5.01 µM,"CCCCc1nc(N)c2[nH]cc(CCCN3CCNCC3)c2n1 [Example 5, 2-Butyl-7-(3-(piperazin-1-yl)propyl)-5H-pyrrolo[3,2-d]pyrimidin-4-amine]"
≤ 1.58 µM,≥ 5.01 µM,CCCCc1nc(N)c2[nH]cc(CCCCN3CCN(C(C)C)CC3)c2n1 [Example 7]
